Common to all, as to type: cell-based
For assay [1], the system named is 4th stage larvae (L4) of Dirofilaria immitis. The assay is described as follows: Dirofilaria immitis, L4 Stage (DiL4) In Vitro Assay. The following applies: Dirofilaria immitis, 72 h, read-out: DiL4 Minimum Effective Dose (MED), approximately 72 hours incubation; L4 larvae assessed for survival or paralysis.
The subject of assay [2] is microfilariae of Dirofilaria immitis. The assay is described as follows: Dirofilaria immitis, Microfilaria (DiMF) In vitro Assay. As to conditions: 72 h, read-out: DiMF Minimum Effective Dose (MED), approximately 72 hours incubation, microfilariae assessed for survival or paralysis.
Assay [3] concerns third stage larvae of Haemonchus contortus. Description: Haemonchus contortus L3 (HcL3) Assay. As to conditions: 96 h, read-out: HcL3 Minimum Effective Dose (MED).

Minimal effective concentration data for 13 compounds are collected here from patent publication US11331369B2, “Endoparasitic depsipeptides” (Zoetis Services LLC, priority 2017, dated 2022).

As for `Cc1cc(C#N)nn1Cc1ccc(C[C@H]2OC(=O)[C@H](CC(C)C)N(C)C(=O)[C@@H](C)OC(=O)[C@H](CC(C)C)N(C)C(=O)[C@@H](Cc3ccc(Cn4nc(C#N)cc4C)cc3)OC(=O)[C@H](CC(C)C)N(C)C(=O)[C@@H](C)OC(=O)[C@H](CC(C)C)N(C)C2=O)cc1` [Example 1b-194, 1,1′-(((((2R,5S,8R,11S,14R,17S,20R,23S)-5,11,17,23-tetraisobutyl-4,8,10,16,20,22-hexamethyl-3,6,9,12,15,18,21,24-octaoxo-1,7,13,19-tetraoxa-4,10,16,22-tetraazacyclotetracosane-2,14-diyl)bis(methylene))bis(4,1-phenylene))bis(methylene))bis(5-methyl-1H-pyrazole-3-carbonitrile)], in assay [1], the minimal effective concentration lay in the range of 0.0001 to 0.001 µM.

As for `COc1cc(C)n(Cc2ccc(C[C@H]3OC(=O)[C@H](CC(C)C)N(C)C(=O)[C@@H](C)OC(=O)[C@H](CC(C)C)N(C)C(=O)[C@@H](Cc4ccc(Cn5nc(OC)cc5C)cc4)OC(=O)[C@H](CC(C)C)N(C)C(=O)[C@@H](C)OC(=O)[C@H](CC(C)C)N(C)C3=O)cc2)n1` [Example 1b-168, (3S,6R,9S,12R,15S,18R,21S,24R)-3,9,15,21-tetraisobutyl-6,18-bis(4-((3-methoxy-5-methyl-1H-pyrazol-1-yl)methyl)benzyl)-4,10,12,16,22,24-hexamethyl-1,7,13,19-tetraoxa-4,10,16,22-tetraazacyclotetracosan-2,5,8,11,14,17,20,23-octaone], the minimal effective concentration in assay [1] lay in the range of 0.001 to 0.01 µM.

On to `Cc1nn(Cc2ccc(C[C@H]3OC(=O)[C@H](CC(C)C)N(C)C(=O)[C@@H](C)OC(=O)[C@H](CC(C)C)N(C)C(=O)[C@@H](Cc4ccc(Cn5nc(C)c(Cl)c5C)cc4)OC(=O)[C@H](CC(C)C)N(C)C(=O)[C@@H](C)OC(=O)[C@H](CC(C)C)N(C)C3=O)cc2)c(C)c1Cl` [Example 1b-51, (3S,6R,9S,12R,15S,18R,21S,24R)-6,18-bis(4-((4-chloro-3,5-dimethyl-1H-pyrazol-1-yl)methyl)benzyl)-3,9,15,21-tetraisobutyl-4,10,12,16,22,24-hexamethyl-1,7,13,19-tetraoxa-4,10,16,22-tetraazacyclotetracosan-2,5,8,11,14,17,20,23-octaone], for which the minimal effective concentration in assay [1] is 0.0001 to 0.001 µM.

Take `CC(C)C[C@H]1C(=O)O[C@H](Cc2ccc(C(C)(C)n3cc(C4CC4)cn3)cc2)C(=O)N(C)[C@@H](CC(C)C)C(=O)O[C@H](C)C(=O)N(C)[C@@H](CC(C)C)C(=O)O[C@H](Cc2ccc(C(C)(C)n3cc(C4CC4)cn3)cc2)C(=O)N(C)[C@@H](CC(C)C)C(=O)O[C@H](C)C(=O)N1C` [Example 1c-8, (3S,6R,9S,12R,15S,18R,21S,24R)-6,18-bis(4-(2-(4-cyclopropyl-1H-pyrazol-1-yl)propan-2-yl)benzyl)-3,9,15,21-tetraisobutyl-4,10,12,16,22,24-hexamethyl-1,7,13,19-tetraoxa-4,10,16,22-tetraazacyclotetracosan-2,5,8,11,14,17,20,23-octaone]: the minimal effective concentration in assay [1] is at most 0.0001 µM.

`CC(C)C[C@H]1C(=O)O[C@H](Cc2ccc(Cn3ccnc3C(F)(F)F)cc2)C(=O)N(C)[C@@H](CC(C)C)C(=O)O[C@H](C)C(=O)N(C)[C@@H](CC(C)C)C(=O)O[C@H](Cc2ccc(Cn3ccnc3C(F)(F)F)cc2)C(=O)N(C)[C@@H](CC(C)C)C(=O)O[C@H](C)C(=O)N1C` [Example 6-15, (3S,6R,9S,12R,15S,18R,21S,24R)-3,9,15,21-tetraisobutyl-4,6,10,16,18,22-hexamethyl-12,24-bis(4-((2-(trifluoromethyl)-1H-imidazol-1-yl)methyl)benzyl)-1,7,13,19-tetraoxa-4,10,16,22-tetraazacyclotetracosan-2,5,8,11,14,17,20,23-octaone]: in assay [1], the minimal effective concentration was 0.0001 to 0.001 µM.

As to `CC(C)C[C@H]1C(=O)O[C@H](Cc2ccc(Cn3nccc3-c3ccc(Cl)cc3)cc2)C(=O)N(C)[C@@H](CC(C)C)C(=O)O[C@H](C)C(=O)N(C)[C@@H](CC(C)C)C(=O)O[C@H](Cc2ccc(Cn3nccc3-c3ccc(Cl)cc3)cc2)C(=O)N(C)[C@@H](CC(C)C)C(=O)O[C@H](C)C(=O)N1C` [Example 1b-153, (3S,6R,9S,12R,15S,18R,21S,24R)-6,18-bis(4-((5-(4-chlorophenyl)-1H-pyrazol-1-yl)methyl)benzyl)-3,9,15,21-tetraisobutyl-4,10,12,16,22,24-hexamethyl-1,7,13,19-tetraoxa-4,10,16,22-tetraazacyclotetracosan-2,5,8,11,14,17,20,23-octaone], the minimal effective concentration in assay [1] was 0.001 to 0.01 µM.

Take `CC(C)C[C@H]1C(=O)O[C@H](Cc2ccc(CN3CCOc4ccncc43)cc2)C(=O)N(C)[C@@H](CC(C)C)C(=O)O[C@H](C)C(=O)N(C)[C@@H](CC(C)C)C(=O)O[C@H](Cc2ccc(CN3CCOc4ccncc43)cc2)C(=O)N(C)[C@@H](CC(C)C)C(=O)O[C@H](C)C(=O)N1C` [Example 9-63, (3S,6R,9S,12R,15S,18R,21S,24R)-6,18-bis[[4-(2,3-dihydropyrido[4,3-b][1,4]oxazin-4-ylmethyl)phenyl]methyl]-3,9,15,21-tetraisobutyl-4,10,12,16,22,24-hexamethyl-1,7,13,19-tetraoxa-4,10,16,22-tetrazacyclotetracosane-2,5,8,11,14,17,20,23-octaone]: the minimal effective concentration in assay [1] lay within 0.001 to 0.01 µM.

Consider `CCOc1cc(-c2ccccc2)nn1Cc1ccc(C[C@H]2OC(=O)[C@H](CC(C)C)N(C)C(=O)[C@@H](C)OC(=O)[C@H](CC(C)C)N(C)C(=O)[C@@H](Cc3ccc(Cn4nc(-c5ccccc5)cc4OCC)cc3)OC(=O)[C@H](CC(C)C)N(C)C(=O)[C@@H](C)OC(=O)[C@H](CC(C)C)N(C)C2=O)cc1` [Example 1b-178, (3S,6R,9S,12R,15S,18R,21S,24R)-6,18-bis(4-((5-ethoxy-3-phenyl-1H-pyrazol-1-yl)methyl)benzyl)-3,9,15,21-tetraisobutyl-4,10,12,16,22,24-hexamethyl-1,7,13,19-tetraoxa-4,10,16,22-tetraazacyclotetracosan-2,5,8,11,14,17,20,23-octaone], for which the minimal effective concentration in assay [1] was in the range of 0.001 to 0.01 µM.

With `CC(C)C[C@H]1C(=O)O[C@H](Cc2ccc(Cn3cc(OCC4CC4)cn3)cc2)C(=O)N(C)[C@@H](CC(C)C)C(=O)O[C@H](C)C(=O)N(C)[C@@H](CC(C)C)C(=O)O[C@H](Cc2ccc(Cn3cc(OCC4CC4)cn3)cc2)C(=O)N(C)[C@@H](CC(C)C)C(=O)O[C@H](C)C(=O)N1C` [Example 1b-146, (3S,6R,9S,12R,15S,18R,21S,24R)-6,18-bis(4-((4-(cyclopropylmethoxy)-1H-pyrazol-1-yl)methyl)benzyl)-3,9,15,21-tetraisobutyl-4,10,12,16,22,24-hexamethyl-1,7,13,19-tetraoxa-4,10,16,22-tetraazacyclotetracosan-2,5,8,11,14,17,20,23-octaone], the minimal effective concentration in assay [1] is 0.001 to 0.01 µM.

Turning to `CC(C)C[C@H]1C(=O)O[C@H](Cc2ccc(Cn3nccc3C3CCCC3)cc2)C(=O)N(C)[C@@H](CC(C)C)C(=O)O[C@H](C)C(=O)N(C)[C@@H](CC(C)C)C(=O)O[C@H](Cc2ccc(Cn3ccc(C4CCCC4)n3)cc2)C(=O)N(C)[C@@H](CC(C)C)C(=O)O[C@H](C)C(=O)N1C` [Example 1a-34, (3S,6R,9S,12R,15S,18R,21S,24R)-6-(4-((3-cyclopentyl-1H-pyrazol-1-yl)methyl)benzyl)-18-(4-((5-cyclopentyl-1H-pyrazol-1-yl)methyl)benzyl)-3,9,15,21-tetraisobutyl-4,10,12,16,22,24-hexamethyl-1,7,13,19-tetraoxa-4,10,16,22-tetraazacyclotetracosan-2,5,8,11,14,17,20,23-octaone], the minimal effective concentration in assay [1] lay within 0.001 to 0.01 µM.

Regarding `CCOCc1nccn1Cc1ccc(C[C@H]2OC(=O)[C@H](CC(C)C)N(C)C(=O)[C@@H](C)OC(=O)[C@H](CC(C)C)N(C)C(=O)[C@@H](Cc3ccc(Cn4ccnc4COCC)cc3)OC(=O)[C@H](CC(C)C)N(C)C(=O)[C@@H](C)OC(=O)[C@H](CC(C)C)N(C)C2=O)cc1` [Example 6-20, (3S,6R,9S,12R,15S,18R,21S,24R)-6,18-bis(4-((2-(ethoxymethyl)-1H-imidazol-1-yl)methyl)benzyl)-3,9,15,21-tetraisobutyl-4,10,12,16,22,24-hexamethyl-1,7,13,19-tetraoxa-4,10,16,22-tetraazacyclotetracosan-2,5,8,11,14,17,20,23-octaone], the minimal effective concentration in assay [2] lay in the range of 0.001 to 0.01 µM; in assay [3], 1 to 10 µM.

Turning to `CCc1ccn(Cc2ccc(C[C@H]3OC(=O)[C@H](CC(C)C)N(C)C(=O)[C@@H](C)OC(=O)[C@H](CC(C)C)N(C)C(=O)[C@@H](Cc4ccc(Cn5ccc(CC)n5)cc4)OC(=O)[C@H](CC(C)C)N(C)C(=O)[C@@H](C)OC(=O)[C@H](CC(C)C)N(C)C3=O)cc2)n1` [Example 1b-95, (3S,6R,9S,12R,15S,18R,21S,24R)-6,18-bis(4-((3-ethyl-1H-pyrazol-1-yl)methyl)benzyl)-3,9,15,21-tetraisobutyl-4,10,12,16,22,24-hexamethyl-1,7,13,19-tetraoxa-4,10,16,22-tetraazacyclotetracosan-2,5,8,11,14,17,20,23-octaone], the minimal effective concentration in assay [2] lay in the range of 0.001 to 0.01 µM; in assay [3] it was 1 to 10 µM.

Regarding `CC(C)C[C@H]1C(=O)O[C@H](Cc2ccc(Cn3ccnc3C(C)(C)C)cc2)C(=O)N(C)[C@@H](CC(C)C)C(=O)O[C@H](C)C(=O)N(C)[C@@H](CC(C)C)C(=O)O[C@H](Cc2ccccc2)C(=O)N(C)[C@@H](CC(C)C)C(=O)O[C@H](C)C(=O)N1C` [Example 8-6, (3S,6R,9S,12R,15S,18R,21S,24R)-6-benzyl-18-[[4-[(2-tert-butylimidazol-1-yl)methyl]phenyl]methyl]-3,9,15,21-tetraisobutyl-4,10,12,16,22,24-hexamethyl-1,7,13,19-tetraoxa-4,10,16,22-tetrazacyclotetracosane-2,5,8,11,14,17,20,23-octaone], the minimal effective concentration in assay [2] is 0.01 to 0.1 µM; in assay [3], 1 to 10 µM.
